Results: US20250230193A1, “CYCLIC COMPOUND HAVING SELECTIVE KRAS INHIBITORY EFFECT ON HRAS AND NRAS” (CHUGAI SEIYAKU KABUSHIKI KAISHA, priority 2022, published 2025)
Where a SMILES comes first, the peptide text is derived from it. Bridges are numbered along the chain shown (N, C = ends). [ ]: non-standard residue; d: D form. The star is where a group is joined. hPhe(3-Cl-4-CF3) = N[C@@H](CCc1ccc(C(F)(F)F)c(Cl)c1)C(=O)O; NPrPhe(4-CF3) = CCCN[C@@H](Cc1ccc(C(F)(F)F)cc1)C(=O)O; NMeGly(cPent) = CN[C@H](C(=O)O)C1CCCC1; Pro(4,4-F2) = O=C(O)[C@@H]1CC(F)(F)CN1; NMeD = CN[C@@H](CC(=O)O)C(=O)O; NMeL = CN[C@@H](CC(C)C)C(=O)O; Morpholide = C1CN(*)CCO1; Ac5c = NC1(C(=O)O)CCCC1; Sar = CNCC(=O)O

Columns and labels:
[1] = target: GDP-bound NRAS wild-type protein (Homo sapiens, UniProt P01111); assay: Binding to NRAS by surface plasmon resonance (SPR), Single Cycle Kinetics; settings: for NRAS/KRAS (ratio of KD value with respect to NRAS to KD value with respect to KRAS): GDP-bound NRAS wild-type vs GDP-bound KRAS wild-type
[2] = target: GDP-bound HRAS wild-type protein (Homo sapiens, UniProt P01112); assay: Binding to HRAS by surface plasmon resonance (SPR), Single Cycle Kinetics; settings: for HRAS/KRAS (ratio of KD value with respect to HRAS to KD value with respect to KRAS): GDP-bound HRAS wild-type vs GDP-bound KRAS wild-type
[3] = KD ratio NRAS/KRAS, class symbols
[4] = KD ratio HRAS/KRAS, class symbols

GDP-bound HRAS wild-type protein, sequence (P01112 whole entry): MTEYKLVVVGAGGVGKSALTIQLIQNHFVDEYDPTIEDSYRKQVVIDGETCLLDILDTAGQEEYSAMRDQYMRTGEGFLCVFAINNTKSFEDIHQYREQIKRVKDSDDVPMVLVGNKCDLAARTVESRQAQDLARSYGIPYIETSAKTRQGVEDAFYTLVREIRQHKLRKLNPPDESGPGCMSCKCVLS
GDP-bound NRAS wild-type protein, sequence (P01111 whole entry): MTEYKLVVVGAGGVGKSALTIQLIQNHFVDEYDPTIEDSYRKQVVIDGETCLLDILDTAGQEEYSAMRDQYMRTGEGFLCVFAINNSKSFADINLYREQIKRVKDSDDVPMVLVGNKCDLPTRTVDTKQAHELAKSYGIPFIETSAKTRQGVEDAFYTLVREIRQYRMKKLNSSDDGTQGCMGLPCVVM

For `C=CC[C@H]1C(=O)N[C@@H]([C@@H](C)CC)C(=O)N(C)CC(=O)N(C)[C@H]2CCCCN(C2=O)[C@@H](Cc2ccc(C(F)(F)F)cc2)C(=O)N(C)CC(=O)N[C@@H](CCc2cc(F)c(C(F)(F)F)c(F)c2)C(=O)N2C[C@H](OCC)C[C@H]2C(=O)NC2(CCC2)C(=O)N(C)[C@@H](C2CCCC2)C(=O)N(C)[C@H](C(=O)N2CCOCC2)CC(=O)N1C` [PP0710], the “NRAS/KRAS (ratio of KD value with respect to GDP-bound NRAS wild-type protein to KD value with respect to KRAS)” value ([1]; KD ratio NRAS/KRAS, SPR) was “C (A compound having a KD ratio of 0.1 or more and less than 3 is denoted as C)” and the “HRAS/KRAS (ratio of KD value with respect to GDP-bound HRAS wild-type protein to KD value with respect to KRAS)” value ([2]; KD ratio HRAS/KRAS, SPR) was “B (a compound having 3 or more and less than 10 is denoted as B)”.
For `CCC[C@H]1C(=O)N[C@@H]([C@@H](C)CC)C(=O)N(C)CC(=O)N(C)[C@H]2C/C=C\CCN(C2=O)[C@@H](Cc2ccc(C(F)(F)F)cc2)C(=O)N(C)CC(=O)N[C@@H](CCc2ccc(C(F)(F)F)c(OC)c2)C(=O)N2C[C@H](OCC)C[C@H]2C(=O)NC2(CC(C)(C)C2)C(=O)N(C)[C@@H](CC2CC2)C(=O)N(C)[C@H](C(=O)N(C)C)CC(=O)N1C` [PP2809], the “NRAS/KRAS (ratio of KD value with respect to GDP-bound NRAS wild-type protein to KD value with respect to KRAS)” value [1, 3] was “A (a compound having 10 or more and less than 20 is denoted as A)” and the “HRAS/KRAS (ratio of KD value with respect to GDP-bound HRAS wild-type protein to KD value with respect to KRAS)” value [2, 4] was “A (a compound having 10 or more and less than 20 is denoted as A)”.
`CC[C@H](C)[C@@H]1NC(=O)[C@@H]2CCC/C=C/c3ccc(cc3)C[C@@H](C(=O)N(C)CC(=O)N[C@@H](CCc3ccc(Cl)c(Cl)c3)C(=O)N3C[C@H](OC(C)C)C[C@H]3C(=O)NC3(CC(C)(C)C3)C(=O)N(C)[C@@H](C3CCCC3)C(=O)N(C)[C@H](C(=O)N3CCCC3)CC(=O)N2C)N2CC/C=C\C[C@@H](C2=O)N(C)C(=O)CN(C)C1=O` [PP2596] was tested, and the “NRAS/KRAS (ratio of KD value with respect to GDP-bound NRAS wild-type protein to KD value with respect to KRAS)” value [1, 3] was “A (a compound having 10 or more and less than 20 is denoted as A)” and the “HRAS/KRAS (ratio of KD value with respect to GDP-bound HRAS wild-type protein to KD value with respect to KRAS)” value [2, 4] was “A (a compound having 10 or more and less than 20 is denoted as A)”.
`CC[C@H](C)[C@@H]1NC(=O)[C@H](CC)N(C)C(=O)C[C@@H](C(=O)N(C)C)N(CC)C(=O)[C@H](C2CCCC2)N(C)C(=O)C2(CCC2)NC(=O)[C@@H]2C[C@@H](N3CCC(F)(F)CC3)CN2C(=O)[C@H](CCc2cc(F)c(C(F)(F)F)c(F)c2)NC(=O)CN(C)C(=O)[C@H](Cc2ccc(C(F)(F)F)cc2)N2CCCC[C@@H](C2=O)N(C)C(=O)CN(C)C1=O` [PP0733] was tested, and the “NRAS/KRAS (ratio of KD value with respect to GDP-bound NRAS wild-type protein to KD value with respect to KRAS)” value ([1]; KD ratio NRAS/KRAS, SPR) was “B (a compound having 3 or more and less than 10 is denoted as B)” and the “HRAS/KRAS (ratio of KD value with respect to GDP-bound HRAS wild-type protein to KD value with respect to KRAS)” value ([2]; KD ratio HRAS/KRAS, SPR) was “B (a compound having 3 or more and less than 10 is denoted as B)”.
For `CCCN1C(=O)CN(C)C(=O)CN(C)C(=O)[C@H]([C@@H](C)CC)NC(=O)[C@H](CC(C)C)N(C)C(=O)C[C@@H](C(=O)N2CCOCC2)N(C)C(=O)[C@H](C2CCCC2)N(C)C(=O)C2(CCCC2)NC(=O)[C@@H]2CC(F)(F)CN2C(=O)[C@H](CCc2ccc(C(F)(F)F)c(Cl)c2)NC(=O)CN(C)C(=O)[C@@H]1Cc1ccc(C(F)(F)F)cc1` [PP0195] ([NMeL]I[Sar][Sar][NPrPhe(4-CF3)][Sar][hPhe(3-Cl-4-CF3)][Pro(4,4-F2)][Ac5c][NMeGly(cPent)][NMeD]-Morpholide; lactam N-11), the “NRAS/KRAS (ratio of KD for GDP-bound NRAS wild-type to KD for KRAS)” value ([1]; KD ratio NRAS/KRAS, SPR) was “B (a compound having 3 or more and less than 10 is denoted as B)” and the “HRAS/KRAS (ratio of KD for GDP-bound HRAS wild-type to KD for KRAS)” value ([2]; KD ratio HRAS/KRAS, SPR) was “C (A compound having a KD ratio of 0.1 or more and less than 3 is denoted as C)”.
In the case of `CC[C@H](C)[C@@H]1NC(=O)[C@H](CC)N(C)C(=O)C[C@@H](C)N(C)C(=O)[C@H](C2CCCC2)N(C)C(=O)C2(CCCC2)NC(=O)[C@@H]2CCCN2C(=O)[C@H](CCc2cc(F)c(C(F)(F)F)c(F)c2)NC(=O)CN(C)C(=O)[C@H](Cc2ccc(C(F)(F)F)cc2)N2CC/C=C\C[C@@H](C2=O)N(C)C(=O)CN(C)C1=O` [PP1101], the “NRAS/KRAS (ratio of KD value with respect to NRAS to KD value with respect to KRAS)” value ([1]; KD ratio, SPR) is reported as “B (a compound having 3 or more and less than 10 is denoted as B)” and the “HRAS/KRAS (ratio of KD value with respect to HRAS to KD value with respect to KRAS)” value ([2]; KD ratio, SPR) is reported as “B (a compound having 3 or more and less than 10 is denoted as B)”.
`CCO[C@@H]1C[C@H]2C(=O)NC3(CCC3)C(=O)N(C)[C@@H](C3CCCC3)C(=O)N(C)[C@H](C(=O)N3CCOCC3)CC(=O)N(C)[C@@H](CC(C)C)C(=O)N[C@@H]([C@@H](C)CC)C(=O)N(C)CC(=O)N(C)[C@H]3CCCCCN(C3=O)[C@@H](Cc3ccc(F)cc3)C(=O)N(C)CC(=O)N[C@@H](CCc3ccc(C(F)(F)F)c(Cl)c3)C(=O)N2C1` [PP0968] was tested, and the “NRAS/KRAS (ratio of KD value with respect to NRAS to KD value with respect to KRAS)” value ([1]; KD ratio, SPR) was “B (a compound having 3 or more and less than 10 is denoted as B)” and the “HRAS/KRAS (ratio of KD value with respect to HRAS to KD value with respect to KRAS)” value ([2]; KD ratio, SPR) was “B (a compound having 3 or more and less than 10 is denoted as B)”.
For `CCCO[C@H](C)[C@@H]1NC(=O)[C@H](COCC)N(C)C(=O)C[C@@H](C(=O)N(C)CC)N(C)C(=O)[C@H](C2CCCC2)N(C)C(=O)C2(CC(C)(C)C2)NC(=O)[C@@H]2C[C@H](C)CN2C(=O)[C@H](CCc2ccc(C(F)(F)F)c(OC)c2)NC(=O)CN(C)C(=O)[C@H](Cc2ccc(C)cc2)N2CC/C=C\C[C@@H](C2=O)N(C)C(=O)CN(C)C1=O` [PP2425], the “NRAS/KRAS (ratio of KD value with respect to NRAS to KD value with respect to KRAS)” value ([1]; SPR) was “AA (a compound having 20 or more is denoted as AA)” and the “HRAS/KRAS (ratio of KD value with respect to HRAS to KD value with respect to KRAS)” value ([2]; SPR) was “A (a compound having 10 or more and less than 20 is denoted as A)”.
